Test: solubility of 7-des-ethyl-irinotecan compared with camptothecin and 10-hydroxycamptothecin
Format: physicochemical
Conditions: as compared to camptothecin and 10-hydroxycamptothecin; solvent not stated

CC[C@@]1(O)C(=O)OCc2c1cc1n(c2=O)Cc2cc3cc(OC(=O)N4CCC(N5CCCCC5)CC4)ccc3nc2-1 [7-des-ethyl-irinotecan, 10-[4-(1-piperidino)-1-piperidino]carbonyloxycamptothecin]
solubility: significantly better solubility

— US9765083B2, “Method for the synthesis of irinotecan” (Synbias Pharma AG, priority 2013, dated 2017)
